Consider 3 compounds from US20090054493A1, “THIAZOLE DERIVATIVES AS PPAR DELTA LIGANDS AND THEIR MANUFACTURING PROCESS” (priority 2005, published 2009).

Like-named read-outs stand apart in the source and are kept apart here.

The target of data set [1] is T1, PPARγ (Mus musculus, UniProt P37238).
T1 sequence (P37238 1-505): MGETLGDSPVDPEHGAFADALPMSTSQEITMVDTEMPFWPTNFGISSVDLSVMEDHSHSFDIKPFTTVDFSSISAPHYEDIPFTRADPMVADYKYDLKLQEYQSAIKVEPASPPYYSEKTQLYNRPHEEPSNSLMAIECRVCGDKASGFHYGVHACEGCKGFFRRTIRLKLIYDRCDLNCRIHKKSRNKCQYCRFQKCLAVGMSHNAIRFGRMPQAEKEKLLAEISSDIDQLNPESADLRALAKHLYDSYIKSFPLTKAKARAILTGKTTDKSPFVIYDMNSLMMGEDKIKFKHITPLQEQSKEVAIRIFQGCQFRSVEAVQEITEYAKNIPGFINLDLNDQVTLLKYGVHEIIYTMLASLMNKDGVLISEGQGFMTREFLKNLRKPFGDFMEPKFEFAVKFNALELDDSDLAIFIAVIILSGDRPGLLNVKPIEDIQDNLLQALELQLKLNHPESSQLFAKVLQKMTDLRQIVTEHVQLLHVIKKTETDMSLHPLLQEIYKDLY
Particulars: test on rodents, background art; cited from earlier work.

In data set [2] the target is T2, PPARδ (Homo sapiens, UniProt Q03181).
T2 sequence (Q03181 1-441): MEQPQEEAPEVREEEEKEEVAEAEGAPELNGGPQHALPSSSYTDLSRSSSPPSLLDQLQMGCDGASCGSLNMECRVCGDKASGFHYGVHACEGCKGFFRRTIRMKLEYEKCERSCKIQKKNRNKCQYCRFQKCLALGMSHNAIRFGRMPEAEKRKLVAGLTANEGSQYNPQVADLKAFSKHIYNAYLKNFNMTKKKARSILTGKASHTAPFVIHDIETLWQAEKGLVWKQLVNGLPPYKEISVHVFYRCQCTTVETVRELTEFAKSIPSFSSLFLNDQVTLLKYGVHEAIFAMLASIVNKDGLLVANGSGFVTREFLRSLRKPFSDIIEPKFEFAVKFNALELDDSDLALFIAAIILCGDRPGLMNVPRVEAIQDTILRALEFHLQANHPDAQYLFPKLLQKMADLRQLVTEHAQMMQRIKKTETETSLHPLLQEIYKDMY
The settings on record: background art, cited from earlier work.

In data set [3] the target is T3, PPARα (Homo sapiens, UniProt Q07869).
T3 construct: full-length PPARs plasmid DNA; expressed in transfected cells; host or cells: CV-1 cells
T3 sequence (Q07869 1-468): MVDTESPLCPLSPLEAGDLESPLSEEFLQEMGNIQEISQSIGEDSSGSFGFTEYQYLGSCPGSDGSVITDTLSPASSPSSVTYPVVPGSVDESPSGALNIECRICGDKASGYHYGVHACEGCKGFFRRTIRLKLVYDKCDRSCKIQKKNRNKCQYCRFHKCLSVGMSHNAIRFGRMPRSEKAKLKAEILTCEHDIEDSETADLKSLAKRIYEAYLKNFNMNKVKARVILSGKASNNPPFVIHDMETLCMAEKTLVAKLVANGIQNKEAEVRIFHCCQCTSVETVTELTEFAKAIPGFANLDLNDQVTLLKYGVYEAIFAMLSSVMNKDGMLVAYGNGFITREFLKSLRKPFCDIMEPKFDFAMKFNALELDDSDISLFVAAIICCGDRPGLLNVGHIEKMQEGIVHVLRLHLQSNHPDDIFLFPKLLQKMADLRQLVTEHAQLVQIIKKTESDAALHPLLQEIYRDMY
The data set can be described thus: Transfection assay (luciferase reporter) in CV-1 cells, PPARα. It is filed as cell-based. The settings on record: full-length PPAR plasmid, luciferase normalized with β-galactosidase. On the procedure:
(§1) The compounds prepared in Examples were tested for PPARδ activity by a transfection assay. In addition, the compounds were tested for selectivity for PPARα and PPARγ, the subtypes of PPARs, and also tested for toxicity by a MTT assay.
(§2) A transfection assay was performed using CV-1 cells. The culture of the cells was performed using a DMEM medium (10% FBS, DBS (delipidated) and 1% penicillin/streptomycin) on a 96-well plate in a 5% carbon dioxide-containing incubator at 37° C. The test was performed in four steps consisting of cell inoculation, transfection, treatment of the compounds, and analysis of results. Specifically, CV-1 cells were inoculated onto a 96-well plate at a concentration of 5,000 cells/well, and after 24 hours, the cells were transfected. In the cell transfection, full-length PPARs plasmid DNA, reporter DNA that has luciferase activity and thus allows the identification of PPARs, and β-galactosidase DNA that provides the information of transfection efficiency, were used as transfection reagents. Each of the compounds developed in the present invention was dissolved in dimethylsulfoxide (DMSO) and transfected into the cells at various concentrations using media. The cells were cultured in an incubator for 24 and then lysed with lysis buffer. The lysed cells were measured for luciferase and β-galactosidase activities using a luminometer and a microplate reader. The measured luciferase values were normalized with the β-galactosidase values and graphed. From the graph, EC50 values were determined.
On the technique in general: Reporter assays use an easily measured gene product as a stand-in for the process of interest.

Data set [4] deals with T2, PPARδ. The data set can be described thus: Transfection assay (luciferase reporter) in CV-1 cells, PPARδ. It is filed as cell-based. Also noted: full-length PPARs plasmid DNA; expressed in transfected cells; host or cells: CV-1 cells. Particulars: full-length PPAR plasmid, luciferase normalized with β-galactosidase. The method, then:
as §1
as §2, with “The test was performed in four steps consisting of cell inoculation, transfection, treatment of the compounds, and analysis of results.” left out

The target in data set [5] is T4, PPARγ (Homo sapiens, UniProt P37231).
T4 construct: full-length PPARs plasmid DNA; expressed in transfected cells; host or cells: CV-1 cells
T4 sequence (P37231 1-505): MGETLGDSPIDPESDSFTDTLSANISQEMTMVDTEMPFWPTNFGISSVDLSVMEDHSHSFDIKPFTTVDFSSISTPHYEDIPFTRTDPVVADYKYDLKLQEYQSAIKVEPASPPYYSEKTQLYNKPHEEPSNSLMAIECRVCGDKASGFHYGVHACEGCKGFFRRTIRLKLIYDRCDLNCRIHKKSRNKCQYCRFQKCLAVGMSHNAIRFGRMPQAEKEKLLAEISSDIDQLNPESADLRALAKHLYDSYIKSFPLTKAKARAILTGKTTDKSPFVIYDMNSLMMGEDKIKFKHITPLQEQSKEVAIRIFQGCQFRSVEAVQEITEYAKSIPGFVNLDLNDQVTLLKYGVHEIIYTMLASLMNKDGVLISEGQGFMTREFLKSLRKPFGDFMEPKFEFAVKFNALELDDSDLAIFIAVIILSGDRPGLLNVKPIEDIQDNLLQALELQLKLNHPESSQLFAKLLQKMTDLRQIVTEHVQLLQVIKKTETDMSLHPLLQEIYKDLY
As to the kind of experiment: Transfection assay (luciferase reporter) in CV-1 cells, PPARγ. In kind it is cell-based. The settings on record: full-length PPAR plasmid, luciferase normalized with β-galactosidase. The method, then:
as §1
as §2, with “The test was performed in four steps consisting of cell inoculation, transfection, treatment of the compounds, and analysis of results.” left out

Data set [6] can be described thus: MTT assay, cytotoxicity. It is filed as cell-based. Particulars: African green monkey, CV-1 cells, read-out: LC50 Cytotoxicity. On the procedure: The compounds of Examples 47-97 according to the present invention were tested for cytotoxicity using a MTT assay. MTT is a water-soluble yellow substance, but if it is introduced into living cells, it will be degenerated into a water-insoluble purple crystal due to dehydrogenase contained in mitochondria. If this substance is dissolved in dimethylsulfoxide and then measured for absorbance at 550 nm, cytotoxicity can be assayed. The test method is as follows.
CV-1 cells were first inoculated onto a 96-well plate at a concentration of 5,000 cells/well. The inoculated cells were cultured in a 5% carbon dioxide-containing humidified incubator at 37° C. for 24 hours, and then treated with the inventive compounds at various concentrations. After 24 hours of culture, a MTT reagent was added to the cultured cells. After 15 minutes of culture, the resulting purple crystal was dissolved in dimethylsulfoxide and then measured for absorbance using a microplate reader. From the measured absorbance, cytotoxicity was assayed.
A general note: Tetrazolium assays rely on reduction of a dye to a coloured formazan, in cell work by metabolically active cells.

Usually EC50 stands for the midpoint of the concentration-response curve.

Consider `CCCc1c(OCCCOc2ccc(OCC(=O)O)cc2)ccc(C(C)=O)c1O` [Example L-165041], for which the “selectivity for PPARγ” value in data set [1] is reported as “almost no selectivity”. For the same compound, the “selectivity for hPPARδ than PPARα and PPARγ” value in data set [2] is 10 fold. Moreover, the EC50 in data set [2] (hPPARδ) is 530 nM.
`Cc1cc(SC(Cc2c(F)cccc2F)c2sc(-c3ccc(C(F)(F)F)c(F)c3)nc2C)ccc1OCC(=O)O` (centres unmarked) [Example 94, 2-[4-[1-[2-[3-fluoro-4-(trifluoromethyl)phenyl]-4-methylthiazol-5-yl]-2-(2,6-difluorophenyl)ethylthio]-2-methylphenoxy]acetic acid]: in data set [3], the “EC50 PPARα” value is reported as “ia”. Moreover, in data set [4], the EC50 was determined as 0.9 nM. Also, the “EC50 PPARγ” value in data set [5] was “ia”. In addition, the CC50 at 24 h in data set [6] was over 10000 nM.
As for `COc1cc(CC(Sc2ccc(OCC(=O)O)c(C)c2)c2sc(-c3ccc(C(F)(F)F)cc3)nc2C)cc(OC)c1` (centres unmarked) [Example 79, 2-[4-[1-[2-[4-(trifluoromethyl)phenyl]-4-methylthiazol-5-yl]-2-(3,5-dimethoxyphenyl)ethylthio]-2-methylphenoxy]acetic acid], the “EC50 PPARα” value in data set [3] is “ia”. In data set [4], this compound came in with an EC50 of 46.4 nM. In data set [5], the “EC50 PPARγ” value is recorded as “ia”. Moreover, in data set [6], the CC50 at 24 h was over 100000 nM.
